Experimental findings from patent US20050164976A1, “Combination of a cdk inhibitor and 5-fu for the tratment of cancer” (Cyclacel Limited, priority 2002, published 2005) are described below.

For experiment [1], the system named is HT29 cells. The experiment in a line: cells. Particulars: Homo sapiens, HT-29. The text has this: Cells were washed in media to inactivate trypsin before reseeding or analysis.
The test system of experiment [2] is HT29 cells. The experiment in a line: analysis of cell cycle distribution by flow cytometry. It is filed as cell-based, human. Particulars: single agent, 48 hours; roscovitine 20 μM and 40 μM; 5-FU 0.5 μM and 1 μM; dose dependent. For orientation: A flow cytometer gives signals particle by particle.
Experiment [3] concerns HT29 cells. Description: activated caspase-3 assay. Particulars: single agent, dose dependent. The experiment is classed as cell-based, human.
A further experiment relates to MCF7 cells. The experiment in a line: cells. To be noted: Homo sapiens. On the procedure:
MCF7 cells were seeded at 3,000/well in 96 well plates. Cell were allowed to settle overnight, and medium replaced with drug-containing medium the next day. Nine different drug treatments were tested, in triplicate, in each plate.

Experiment [4] deals with HT29 cells. To be noted: single agent; 40 μM roscovitine; 1 μM 5-FU.
Description: HT29 cells were seeded and treated with drug in the same way as for the determination of cell cycle distribution. After 24 hours, media was replaced with that containing 10 μM BrdU and incubated for 30 minutes. Detached cells were harvested, plates were washed twice in PBS and adherent cells harvested by trypsinisation. Adherent and detached cells were pooled, washed in PBS, fixed in ice cold 70% v/v ethanol and stored at 4° C. Cells were washed twice in PBS+1% BSA and treated with 2M HCl for 20 minutes, followed by a further three washes in PBS. Cells were pelleted and 2 μl of anti-BrdU antibody (Pharmingen) added to the pellet. […] After incubation at room temperature protected from light for 20 minutes, samples were analysed by flow cytometry.
A Becton Dickinson LSR flow cytometer was used for these studies, in accordance with the manufacturers recommendations. […] Where used, activated caspase-3 and BrdU positive cells were designated as such on the basis of green fluorescence (530±28 nm), acquired on a logarithmic scale. Red fluorescence (575±26 nm) was acquired on a linear scale and pulse width analysis was used to exclude cell doublets and aggregates from the analysis. Cells with a DNA content of between 2n and 4n were designated as being in G1, S or G2/M phases of the cell cycle, as defined by the level of red fluorescence. […]
Experiment [5] has as its system human mammary cancer xenograft MAXF 857. To be noted: 5FU alone at the concentrations used in the combination.
Description: Cells were passed through sieves of 200 μm and 50 μm mesh size and washed twice with sterile PBS-buffer (Life Technologies). The percentage of viable cells was determined in a Neubauer-hemocytometer using trypan blue exclusion.
The clonogenic assay was performed in a 24-well format according to a modified two-layer soft agar assay introduced by Hamburger et al [Hamburger, A. W. & S. E. Salmon. […] The bottom layer consisted of 0.2 ml/well of Iscove's Modified Dulbecco's Medium (supplemented with 20% (v/v) fetal calf serum and 0.01% (v/v) gentamicin) and 0.75% (w/v) agar. 5·10^4 cells were added to 0.2 ml of the same culture medium supplemented with 0.4% (w/v) agar and plated in 24-multiwell dishes onto the bottom layer. Cytostatic drugs were applied by continuous exposure (drug overlay) in 0.2 ml culture medium 24 hours after seeding in the cells. Every dish included six control wells and drug-treated groups in triplicate at 6 concentrations. […] Cultures were incubated at 37° C. and 7.5% CO2 in a humidified atmosphere for 8-20 days and monitored closely for colony growth using an inverted microscope. Within this period, in vitro tumor growth led to the formation of colonies with a diameter of >50 μm. At the time of maximum colony formation, counts were performed with an automatic image analysis system (OMNICON FAS IV, Biosys GmbH). […]

What is called IC50 is the concentration that inhibits the measured activity by half. Take `O=c1[nH]cc(F)c(=O)[nH]1` [5-FU, 5-Fluorouracil]: the IC50 in the experiment with HT29 cells [1] amounted to 1 µM; in the experiment on MCF7 cells, 8 µM. The “effect on cell cycle distribution” value in the experiment with HT29 cells [2] is “accumulation of cells in S phase”. Besides, the “activation of caspase-3” value with HT29 cells [3] was “albeit to a lesser extent”. Moreover, the “number of cells incorporating BrdU” value with HT29 cells [4] worked out at 64.3%. The “effect on cell growth” value in experiment [5] is recorded as “no effect on cell growth”.
As for `CC[C@H](CO)Nc1nc(NCc2ccccc2)c2ncn(C(C)C)c2n1` [roscovitine, 6-benzylamino-2-[(R)-1-ethyl-2-hydroxyethylamino]-9-isopropylpurine], the “effect on cell cycle distribution” value in the experiment on HT29 cells [2] is reported as “accumulation of cells in G2/M”. For the same compound, the “activation of caspase-3” value with HT29 cells [3] is on record as “induces activation of caspase-3”. Moreover, the “number of cells incorporating BrdU” value with HT29 cells [4] is 3.8%.
